Our source for the Diglyceride, Monoglyceride and Triglyceride values is patent USRE43135E1, “Method of improving dough and bread quality” (Danisco A/S, priority 2001, dated 2012).

The assay can be described thus: Minibread dough, GLC analysis of non-polar dough lipids. The assay is classed as biochemical, wheat. The protocol:
10 g of fully proofed dough was immediately frozen and freeze dried. The freeze-dried dough was milled in a coffee mill and passed through an 800 micron screen. 1.5 g freeze-dried dough was scaled in a 15 ml centrifuge tube with screw top lid. 7.5 ml water saturated butanol (WSB) was added. The centrifuge tube was placed in a boiling water bath for 10 minutes. The tubes were placed in a Rotamix and rotated at 45 rpm for 20 minutes at ambient temperature and then placed in a boiling water bath again for a further 10 minutes prior to being Rotated on the Rotamix for a further 30 minutes at ambient temperature. The tubes were centrifuged at 3500 g for 5 minutes. 5 ml supernatant was transferred into a vial and the WSB was evaporated to dryness under a steam of nitrogen.
Perkin Elmer 8420 Capillary Gas Chromatography equipped with WCOT fused silica column 12.5 m×0.25 mm ID×0.1 μm 5% phenyl-methyl-silicone (CP Sil 8 CB from Crompack). • Carrier: Helium. • Injection: 1.5 μl with split. • Detector: FID. 385° C.
Sample preparation: 50 mg wheat lipid was dissolved in 12 ml heptane: pyridine 2:1 containing an internal standard heptadecane, 2 mg/ml. 500 μl of the sample was transferred to a crimp vial. 100 μl MSTFA (N-Methyl-N-trimethylsilyltrifluoracetamid) was added and the reaction incubated for 15 minutes at 90° C. Calculation: Response factors for mono-di-triglycerides and free fatty acid were determined from reference mixtures of these components. Based on these response factors the mono-di-triglycerides and free fatty acids in wheat lipids were calculated.

Where [1] appears, read: Cowpea LAH % 0.1195, minibread dough.
Where [2] appears, read: Cowpea LAH % 0.239, minibread dough.
Where [3] appears, read: Cowpea LAH % 0.478, minibread dough.
The mark [4] stands for this setting: Cowpea LAH % 0.956, minibread dough.
Setting [5] is: Test no. 2, Cowpea LAH 0.05 % in dough, fully proofed minibread dough.
Setting [6] is: Test no. 3, Cowpea LAH 0.15 % in dough, fully proofed minibread dough.

In the case of “Cowpea LAH: lipolytic acyl hydrolase (E.C. 3.1.1.26) isolated from cowpea (Vigna unguiculata) leaves; hydrolyses glycolipid and phospholipid, not triglyceride”, the Diglyceride is on record as 0.96 ‰ under setting [1]; 1.23 ‰ under setting [2]; 0.90 ‰ under setting [3]; 1.01 ‰ under setting [4]; 0.95 ‰ under setting [5]; 0.96 ‰ under setting [6]. Further, the Monoglyceride runs as follows: under setting [1], 0.40 ‰; under setting [2], 0.41 ‰; under setting [3], 0.43 ‰; under setting [4], 0.41 ‰; under setting [5], 0.43 ‰; under setting [6], 0.43 ‰. In addition, the Triglyceride by setting is: under setting [1], 5.04 ‰; under setting [2], 5.21 ‰; under setting [3], 5.09 ‰; under setting [4], 5.23 ‰; under setting [5], 4.98 ‰; under setting [6], 5.11 ‰. Further, the Triglyceride entry by setting is: (Test no. 3, Cowpea LAH 0.357 Units/kg flour, no DGDG added, minibread dough) “not detected”; (Test no. 4, Cowpea LAH 0.357 Units/kg flour + DGDG 55% pure 0.2 %, minibread dough) 5.82 ‰.
